Experimental data taken from publication PMC5452050 (ACS Omega, 2017).
Numbering of substitutions follows the chain as printed.

What was measured:
[1] = system: MOLM13^FLT3-ITD/D835Y cells; test: MOLM13 cell viability; format: cell-based; conditions: Homo sapiens, MOLM-13, 72 h, read-out: MOLM13^FLT3-ITD/D835Y IC50
FLT3 (ITD, D835V) = target: T1, FLT3 (ITD, D835V) (Homo sapiens, UniProt P36888, D835V/ITD); test: Kd determination; format: binding
T1 sequence (P36888 564-993 D835V): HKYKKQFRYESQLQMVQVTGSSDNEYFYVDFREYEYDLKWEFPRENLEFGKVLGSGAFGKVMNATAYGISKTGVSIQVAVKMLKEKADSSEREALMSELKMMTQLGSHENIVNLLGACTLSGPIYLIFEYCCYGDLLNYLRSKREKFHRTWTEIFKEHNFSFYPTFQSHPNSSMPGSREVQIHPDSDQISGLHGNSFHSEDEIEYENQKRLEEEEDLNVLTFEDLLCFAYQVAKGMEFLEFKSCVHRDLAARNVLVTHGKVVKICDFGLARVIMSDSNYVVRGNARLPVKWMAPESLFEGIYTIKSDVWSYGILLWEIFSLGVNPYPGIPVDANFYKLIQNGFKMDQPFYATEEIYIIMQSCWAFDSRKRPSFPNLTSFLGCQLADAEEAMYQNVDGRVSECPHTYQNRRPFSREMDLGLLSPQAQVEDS

FLT3 (R834Q) = target: T2, FLT3 (R834Q) (Homo sapiens, UniProt P36888, R834Q); test: Kd determination; format: binding
T2 sequence (P36888 27-993 R834Q): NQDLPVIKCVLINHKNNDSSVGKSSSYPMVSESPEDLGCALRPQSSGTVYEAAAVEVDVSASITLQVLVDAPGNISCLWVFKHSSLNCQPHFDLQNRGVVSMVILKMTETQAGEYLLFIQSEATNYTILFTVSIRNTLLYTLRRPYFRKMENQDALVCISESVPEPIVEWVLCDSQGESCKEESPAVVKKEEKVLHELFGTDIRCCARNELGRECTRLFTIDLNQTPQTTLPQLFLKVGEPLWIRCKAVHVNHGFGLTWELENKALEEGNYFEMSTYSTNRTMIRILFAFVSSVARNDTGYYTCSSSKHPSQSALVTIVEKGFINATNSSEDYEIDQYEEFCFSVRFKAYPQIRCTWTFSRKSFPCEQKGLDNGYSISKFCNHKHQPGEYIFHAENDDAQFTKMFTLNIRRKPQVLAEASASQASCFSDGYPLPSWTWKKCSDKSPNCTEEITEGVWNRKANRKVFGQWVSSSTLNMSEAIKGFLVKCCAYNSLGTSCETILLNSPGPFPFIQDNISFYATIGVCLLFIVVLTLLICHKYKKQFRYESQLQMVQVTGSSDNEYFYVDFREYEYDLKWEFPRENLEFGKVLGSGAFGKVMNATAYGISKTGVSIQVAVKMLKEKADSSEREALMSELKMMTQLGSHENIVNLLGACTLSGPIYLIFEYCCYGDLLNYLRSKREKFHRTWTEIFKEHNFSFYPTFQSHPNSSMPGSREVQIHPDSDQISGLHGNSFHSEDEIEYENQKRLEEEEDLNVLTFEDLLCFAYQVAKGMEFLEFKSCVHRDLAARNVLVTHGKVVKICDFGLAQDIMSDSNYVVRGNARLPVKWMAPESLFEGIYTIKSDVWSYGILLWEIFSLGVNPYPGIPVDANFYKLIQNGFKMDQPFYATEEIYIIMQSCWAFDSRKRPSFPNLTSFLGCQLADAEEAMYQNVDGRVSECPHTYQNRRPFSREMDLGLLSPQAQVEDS

FLT3 (N841I) = target: T3, FLT3 (N841I) (Homo sapiens, UniProt P36888, N841I); test: Kd determination; format: binding
T3 sequence (P36888 27-993 N841I): T2 sequence (P36888 27-993 R834Q) with Q808R, N815I

c1cncc(-c2cccc(Nc3nccc(NC4CCCCC4)n3)c2)c1 [Compound 1, N^4-Cyclohexyl-N^2-(3-(pyridin-3-yl)phenyl)pyrimidine-2,4-diamine]
IC50 [1]: 1150 nM
Kd (FLT3 (ITD, D835V)): 7.2 nM
Kd (FLT3 (R834Q)): 680 nM
Kd (FLT3 (N841I)): 48 nM

CC(C)Nc1ccnc(Nc2cccc(-c3cccnc3)c2)n1 [Compound 5e, N^4-Isopropyl-N^2-(3-(pyridin-3-yl)phenyl)pyrimidine-2,4-diamine]
IC50 [1]: 82 nM
Kd (FLT3 (ITD, D835V)): 0.36 nM
Kd (FLT3 (R834Q)): 82 nM
Kd (FLT3 (N841I)): 11 nM

CC(C)Nc1ccnc(Nc2ccccc2-c2ccccc2)n1 [Compound 6a, N^2-([1,1′-Biphenyl]-2-yl)-N^4-isopropylpyrimidine-2,4-diamine]
IC50 [1]: 4260 nM
Kd (FLT3 (ITD, D835V)): > 10000 nM
Kd (FLT3 (R834Q)): > 10000 nM
Kd (FLT3 (N841I)): > 10000 nM
